# In patent US20250375417A1, “OREXIN RECEPTOR 2 (OX2R) AGONIST FOR USE IN NARCOLEPSY TYPE 1 (NT1)” (TAKEDA PHARMACEUTICAL COMPANY LIMITED, priority 2024, published 2025):
# Marks after values point to notes of the source that are not given here.
# Experiments:
# [1] = tested on: participants with NT1; assay: Nocturnal polysomnography (PSG) sleep architecture, Phase 2 NT1 trial; type: in vivo, human
# Excerpt: Polysomnography (PSG) was collected at baseline and after 27 and 54 days of treatment. Sleep was manually scored following AASM guidelines; sleep metrics were extracted then computed by whole night and by quarter-night. Continuous accelerometry (Empatica EmbracePlus watch) allowed assessment of sleep in a naturalistic manner at home. Daily sleep diaries were used to capture subjective reports. Mixed effects models were fit with treatment, quarter-night, visit, and their interactions as fixed effects and random intercepts per subject. A reference PSG dataset (Vilela M, et al. J Sleep Res 2024; e14216) from CHU Montpellier (49 clinical controls and 114 patients with NT1, all drug-free) was analyzed to establish DNS characteristics of NT1.
# [2] = tested on: participants with NT2; assay: Safety (TEAEs), Phase 2 NT2 trial; type: in vivo, human
# Description: The principal mitigation strategy for risks related to BP increase, HR increase, insomnia, and bladder events included appropriate selection of the study population; use of the inpatient clinical research unit setting and home health visits, which permitted close monitoring and rapid institution of appropriate care as needed; appropriate specified monitoring procedures; and use of experienced staff trained in study procedures. To mitigate cardiovascular risks, BP and HR were measured frequently in this study; cardiovascular effects were evaluated by using BP and HR assessments and electrocardiographic (ECG) assessments. Stopping rules for individual participants and the overall study were established. In addition, because liver function test (LFT) elevation cases have been observed in another OX2R agonist with structural similarity, LFTs (ALT, AST, GGT, and total bilirubin) were closely monitored.
# (§1) Liver function test (LFTs) (alanine aminotransferase [ALT], aspartate aminotransferase [AST], γ-glutamyl transferase [GGT], and total bilirubin) were closely monitored in this study. Stopping criteria for individual participants and the overall study, based on abnormal LFTs were established.
# Eligible participants were age 18-70 years, with Epworth Sleepiness Scale (ESS) score>12 and no other current EDS-related medical conditions. Participants were randomized 1:1:1 to daily oral Compound A 2 mg twice 3 hours apart, 2 mg then 5 mg 3 hours later, or placebo. Study endpoints included change from baseline to Week 8 in mean Sleep Onset Latency on the Maintenance of Wakefulness Test (mean SOL-MWT; primary endpoint), ESS total score, and incidence of treatment-emergent adverse events (TEAEs). Participants who completed the placebo-controlled study could enroll in a ˜2-year Long Term Extension (LTE) study. LTE TEAE data up to Jan. 25, 2024 are reported.
# [3] = tested on: participants with NT1; assay: Exit interviews after Week 8, Phase 2 NT1 trial; type: in vivo, human; settings: most Compound A participants (n=21)
# Description: Treatment Satisfaction Questionnaire for Medication (TSQM) and exit interview results from the study were evaluated to explore the impact of Compound A treatment on individuals with ICSD-3-confirmed NT1. Participants aged 18-70 years, with an Epworth Sleepiness Scale (ESS) score>12, and ≥4 partial/complete episodes of cataplexy/week were included in the trial. Participants were randomized to oral Compound A (0.5 mg twice 3 hours apart, 2 mg twice 3 hours apart, 2 mg then 5 mg 3 hours later, or 7 mg once daily), or placebo.
# FIG. 19 and FIG. 20 show the results of exit interview outcomes at Week 8. […] Symptoms rated as most important to improve from baseline were EDS, cataplexy and impaired cognitive function (FIG. 19); most frequently cited impacts were work/school-related, social/leisure activities and general quality of life (FIG. 20). Changes in impacts were meaningful for Compound A-treated participants but not for placebo-treated participants. Overall, 94.7% of Compound A-treated participants (18/19 respondents) would be willing to recommend Compound A to others with narcolepsy.
# [4] = tested on: participants with NT1; assay: Narcolepsy Severity Scale for Clinical Trials (NSS-CT), Phase 2 NT1 trial; type: in vivo, human
# Excerpt: Severity of NT1 symptoms can be assessed through the use of the NSS-CT. The NSS-CT is a 15-item self-administered questionnaire (total score: 0-57) that assesses the severity and consequences of the 5 major narcolepsy symptoms such as daytime sleepiness, cataplexy, hallucinations, sleep paralysis, and disrupted nighttime sleep (DNS). […] Further, the symptom number was associated with diagnosis delay, age at onset, and ESS and Beck Depression Inventory scores (Dauvilliers et al. 2020).
# Methods: An analysis of exploratory data from the study was conducted to explore disease severity in individuals with ICSD-3 confirmed NT1. Eligible participants were age 18-70 years (Japan: 16-70), with an Epworth Sleepiness Scale (ESS) score>12, and >4 partial/complete episodes of cataplexy/week. Exploratory endpoints included change from baseline to Week 8 in the narcolepsy Severity Scale for clinical trials (NSS-CT), and Clinical Global Impression (CGI) and Patient Global Impression (PGI) at Week 8. The NSS-CT, a validated, self-administered 15-item scale, evaluates the severity, frequency, and impact of five main narcolepsy symptoms (higher scores indicate more severe symptoms).
# [5] = Clinical studies of Compound A: drug-induced liver injury; type: in vivo
# Excerpt: as §1
smiles,measurement,setting,value
"CCS(=O)(=O)N[C@@H]1[C@H](Cc2cccc(-c3cc(F)cc(F)c3)c2F)N(C(=O)C(C)(C)O)CC1(F)F [Compound A, N-{(2S,3R)-4,4-difluoro-1-(2-hydroxy-2-methylpropanoyl)-2-[(2,3′,5′-trifluoro[1,1′-biphenyl]-3-yl)methyl]pyrrolidin-3-yl}ethanesulfonamide]","PSG % of time in N1, change from baseline to week 8",[1]; 7 mg QD,2.90* %
same,"PSG % of time in N2, change from baseline to week 8",[1]; 7 mg QD,−6.10* %
same,"PSG % of time in N3, change from baseline to week 8",[1]; 7 mg QD,−0.12%
same,"PSG % of time in REM, change from baseline to week 8",[1]; 7 mg QD,−4.48* %
same,"PSG % of time in WASO, change from baseline to week 8",[1]; 7 mg QD,7.81* %
same,"PSG No. of awakenings, change from baseline to week 8",[1]; 7 mg QD,6.3*
same,"PSG SOL, change from baseline to week 8",[1]; 7 mg QD,-6.8 min
same,"PSG TST, change from baseline to week 8",[1]; 7 mg QD,−42.7* min
same,"PSG WASO, change from baseline to week 8",[1]; 7 mg QD,38.1* min
same,"PSG % of time in N1, change from baseline to week 8",[1]; 0.5/0.5 mg,1.13%
same,"PSG % of time in N2, change from baseline to week 8",[1]; 0.5/0.5 mg,−1.75%
same,"PSG % of time in N3, change from baseline to week 8",[1]; 0.5/0.5 mg,−0.27%
same,"PSG % of time in REM, change from baseline to week 8",[1]; 0.5/0.5 mg,1.28%
same,"PSG % of time in WASO, change from baseline to week 8",[1]; 0.5/0.5 mg,−0.39%
same,"PSG No. of awakenings, change from baseline to week 8",[1]; 0.5/0.5 mg,−2.3
same,"PSG SOL, change from baseline to week 8",[1]; 0.5/0.5 mg,0.4 min
same,"PSG TST, change from baseline to week 8",[1]; 0.5/0.5 mg,-5.4 min
same,"PSG WASO, change from baseline to week 8",[1]; 0.5/0.5 mg,-3.6 min
same,"PSG % of time in N1, change from baseline to week 8",[1]; 2/2 mg,1.76%
same,"PSG % of time in N2, change from baseline to week 8",[1]; 2/2 mg,0.65%
same,"PSG % of time in N3, change from baseline to week 8",[1]; 2/2 mg,0.45%
same,"PSG % of time in REM, change from baseline to week 8",[1]; 2/2 mg,−2.43%
same,"PSG % of time in WASO, change from baseline to week 8",[1]; 2/2 mg,−0.43%
same,"PSG No. of awakenings, change from baseline to week 8",[1]; 2/2 mg,2.5
same,"PSG SOL, change from baseline to week 8",[1]; 2/2 mg,-1.9 min
same,"PSG TST, change from baseline to week 8",[1]; 2/2 mg,8.4 min
same,"PSG WASO, change from baseline to week 8",[1]; 2/2 mg,-2.4 min
same,"PSG % of time in N1, change from baseline to week 8",[1]; 2/5 mg,3.55* %
same,"PSG % of time in N2, change from baseline to week 8",[1]; 2/5 mg,−1.69%
same,"PSG % of time in N3, change from baseline to week 8",[1]; 2/5 mg,−0.44%
same,"PSG % of time in REM, change from baseline to week 8",[1]; 2/5 mg,−4.08* %
same,"PSG % of time in WASO, change from baseline to week 8",[1]; 2/5 mg,2.57%
same,"PSG No. of awakenings, change from baseline to week 8",[1]; 2/5 mg,3.2
same,"PSG SOL, change from baseline to week 8",[1]; 2/5 mg,-3.4 min
same,"PSG TST, change from baseline to week 8",[1]; 2/5 mg,-19.9 min
same,"PSG WASO, change from baseline to week 8",[1]; 2/5 mg,11.0 min
same,REM sleep architecture per quarter night (in-clinic PSG),[1]; week 8 (FIG. 6A),shifted REM sleep from early to later in the night without reducing the total REM
same,Rate of transitions between REM and wake/N1,"[1]; week 8, except in the 0.5 mg/0.5 mg cohort (FIG. 6B)",reduced the rate of sleep/wake transitions early in the night
same,Occurrence of TEAEs,"[2]; Compound A-treated participants (28/47), 8 weeks",59.6%
same,Serious TEAEs,[2]; parent and LTE study,no serious TEAEs
same,Participants discontinued due to TEAEs,[2]; parent study (arm not stated),Two
same,Exit interview outcome: change in narcolepsy symptoms and functional impacts,[3],meaningful improvements in narcolepsy symptoms and functional impacts
same,"NSS-CT total score, LS mean change from baseline to Week 8",[4]; 0.5 mg/0.5 mg,−18.2
same,"NSS-CT total score, LS mean change from baseline to Week 8",[4]; 2 mg/2 mg,−21.0
same,"NSS-CT total score, LS mean change from baseline to Week 8",[4]; 2 mg/5 mg,−21.1
same,"NSS-CT total score, LS mean change from baseline to Week 8",[4]; 7 mg,−17.2
same,Drug-induced liver injury,[5],No cases of drug-induced liver injury have been reported
